Literature values, collected in PMC9851200, “Multiparameter phenotypic screening for endogenous TFEB and TFE3 translocation identifies novel chemical series modulating lysosome function” (Autophagy, 2022).

What was measured:
Set-up in all cases: method as in original PKIS2 published data
[1] = target: T1, kinases (KINOMEscan panel) (Homo sapiens, UniProt O15197); conditions: kinase EPHB6; Published KINOMEscan; ref original PKIS2 published data; cited from earlier work
T1 sequence (O15197 32-1021): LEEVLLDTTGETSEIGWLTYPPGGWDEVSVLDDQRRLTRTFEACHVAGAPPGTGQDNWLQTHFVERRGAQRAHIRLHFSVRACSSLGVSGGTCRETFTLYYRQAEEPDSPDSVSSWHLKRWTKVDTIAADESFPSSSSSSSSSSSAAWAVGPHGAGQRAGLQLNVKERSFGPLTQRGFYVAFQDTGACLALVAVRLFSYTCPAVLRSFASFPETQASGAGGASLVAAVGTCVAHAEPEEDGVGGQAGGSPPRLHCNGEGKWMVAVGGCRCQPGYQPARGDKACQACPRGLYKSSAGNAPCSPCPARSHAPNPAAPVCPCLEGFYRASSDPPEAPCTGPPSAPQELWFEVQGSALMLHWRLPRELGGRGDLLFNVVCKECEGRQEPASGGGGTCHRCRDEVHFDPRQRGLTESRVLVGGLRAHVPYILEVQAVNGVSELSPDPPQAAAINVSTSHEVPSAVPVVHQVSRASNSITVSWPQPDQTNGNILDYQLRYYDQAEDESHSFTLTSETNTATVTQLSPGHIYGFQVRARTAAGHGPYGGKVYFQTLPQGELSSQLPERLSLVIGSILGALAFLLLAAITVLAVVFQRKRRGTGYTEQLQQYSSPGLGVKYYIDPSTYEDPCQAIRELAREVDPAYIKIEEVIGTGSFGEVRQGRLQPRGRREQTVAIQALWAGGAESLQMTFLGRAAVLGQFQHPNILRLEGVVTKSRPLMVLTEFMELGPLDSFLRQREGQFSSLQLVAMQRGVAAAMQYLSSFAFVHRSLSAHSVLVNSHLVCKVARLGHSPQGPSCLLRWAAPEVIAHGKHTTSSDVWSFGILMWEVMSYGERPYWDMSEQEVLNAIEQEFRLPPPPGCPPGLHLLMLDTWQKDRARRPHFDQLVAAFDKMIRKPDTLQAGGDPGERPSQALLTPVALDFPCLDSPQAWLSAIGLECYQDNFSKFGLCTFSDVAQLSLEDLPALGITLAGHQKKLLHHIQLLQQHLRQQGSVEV

[2] = target: T2, kinases (KINOMEscan panel) (Homo sapiens, UniProt P52333); conditions: kinase JAK3(JH1domain-catalytic); Published KINOMEscan; ref original PKIS2 published data; cited from earlier work
T2 sequence (P52333 1-1124): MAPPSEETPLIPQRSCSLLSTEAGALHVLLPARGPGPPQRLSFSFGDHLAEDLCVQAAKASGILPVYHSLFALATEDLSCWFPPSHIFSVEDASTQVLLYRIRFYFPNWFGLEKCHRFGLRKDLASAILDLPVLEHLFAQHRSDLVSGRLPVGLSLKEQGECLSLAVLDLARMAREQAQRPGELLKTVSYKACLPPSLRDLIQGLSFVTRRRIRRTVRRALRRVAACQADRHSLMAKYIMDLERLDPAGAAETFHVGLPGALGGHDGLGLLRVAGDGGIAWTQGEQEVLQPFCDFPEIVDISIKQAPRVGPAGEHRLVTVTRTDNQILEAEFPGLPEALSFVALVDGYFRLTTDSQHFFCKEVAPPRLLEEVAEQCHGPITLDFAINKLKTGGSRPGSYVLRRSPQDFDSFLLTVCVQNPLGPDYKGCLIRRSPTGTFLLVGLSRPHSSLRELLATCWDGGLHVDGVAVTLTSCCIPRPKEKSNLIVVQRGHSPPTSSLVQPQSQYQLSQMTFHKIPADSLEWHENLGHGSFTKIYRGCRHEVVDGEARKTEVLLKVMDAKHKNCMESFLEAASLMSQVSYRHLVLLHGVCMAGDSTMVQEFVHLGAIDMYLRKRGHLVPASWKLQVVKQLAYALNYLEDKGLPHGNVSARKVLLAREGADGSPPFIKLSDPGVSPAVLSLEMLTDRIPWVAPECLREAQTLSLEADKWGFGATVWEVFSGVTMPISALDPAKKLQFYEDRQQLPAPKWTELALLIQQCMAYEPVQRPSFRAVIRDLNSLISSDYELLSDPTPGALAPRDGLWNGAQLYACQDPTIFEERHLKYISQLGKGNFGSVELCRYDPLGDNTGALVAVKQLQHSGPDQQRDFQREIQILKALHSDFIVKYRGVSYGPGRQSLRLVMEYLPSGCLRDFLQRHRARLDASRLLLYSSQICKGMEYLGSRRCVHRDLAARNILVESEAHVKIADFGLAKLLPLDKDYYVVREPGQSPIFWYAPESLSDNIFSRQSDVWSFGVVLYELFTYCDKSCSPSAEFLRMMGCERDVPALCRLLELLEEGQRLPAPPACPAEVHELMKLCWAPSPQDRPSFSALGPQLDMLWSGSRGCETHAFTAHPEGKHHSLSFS

[3] = target: kinases (KINOMEscan panel) (Homo sapiens, UniProt P00533); conditions: kinase EGFR; Published KINOMEscan; ref original PKIS2 published data; cited from earlier work
Chain of kinases (KINOMEscan panel) (Homo sapiens, UniProt P00533) (P00533 25-1210): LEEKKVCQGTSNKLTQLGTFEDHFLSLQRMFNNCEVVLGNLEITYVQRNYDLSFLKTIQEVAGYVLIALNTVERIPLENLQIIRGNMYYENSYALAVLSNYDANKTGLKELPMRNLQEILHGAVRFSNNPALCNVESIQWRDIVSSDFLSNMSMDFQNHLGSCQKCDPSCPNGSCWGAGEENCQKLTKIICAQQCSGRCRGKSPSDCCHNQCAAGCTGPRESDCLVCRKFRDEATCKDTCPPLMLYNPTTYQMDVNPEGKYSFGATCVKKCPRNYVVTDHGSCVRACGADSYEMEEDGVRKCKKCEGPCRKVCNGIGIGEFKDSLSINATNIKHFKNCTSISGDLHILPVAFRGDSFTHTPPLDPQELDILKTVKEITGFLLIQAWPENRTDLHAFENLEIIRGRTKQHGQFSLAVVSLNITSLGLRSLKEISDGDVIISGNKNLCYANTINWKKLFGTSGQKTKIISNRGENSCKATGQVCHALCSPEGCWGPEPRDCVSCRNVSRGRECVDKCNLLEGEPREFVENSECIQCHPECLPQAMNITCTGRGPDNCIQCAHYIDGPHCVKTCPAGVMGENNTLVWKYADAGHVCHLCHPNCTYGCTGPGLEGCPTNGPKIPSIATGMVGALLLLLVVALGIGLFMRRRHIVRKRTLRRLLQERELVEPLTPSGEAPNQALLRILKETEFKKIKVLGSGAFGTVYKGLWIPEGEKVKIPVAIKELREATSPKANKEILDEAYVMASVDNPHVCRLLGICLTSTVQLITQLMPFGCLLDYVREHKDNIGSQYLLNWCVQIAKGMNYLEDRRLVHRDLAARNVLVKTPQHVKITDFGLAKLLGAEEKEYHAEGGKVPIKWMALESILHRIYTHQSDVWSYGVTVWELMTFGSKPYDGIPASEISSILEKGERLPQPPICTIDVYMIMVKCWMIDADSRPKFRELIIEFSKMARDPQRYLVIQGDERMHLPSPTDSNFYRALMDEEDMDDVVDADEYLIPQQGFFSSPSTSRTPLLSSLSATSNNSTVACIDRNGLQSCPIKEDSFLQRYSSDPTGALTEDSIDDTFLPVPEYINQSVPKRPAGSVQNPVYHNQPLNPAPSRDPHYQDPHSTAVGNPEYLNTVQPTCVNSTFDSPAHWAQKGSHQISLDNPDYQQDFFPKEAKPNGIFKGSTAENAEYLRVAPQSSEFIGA

[4] = target: T3, kinases (KINOMEscan panel) (Homo sapiens, UniProt P43403); conditions: Published KINOMEscan; ref original PKIS2 published data; cited from earlier work
T3 sequence (P43403 1-619): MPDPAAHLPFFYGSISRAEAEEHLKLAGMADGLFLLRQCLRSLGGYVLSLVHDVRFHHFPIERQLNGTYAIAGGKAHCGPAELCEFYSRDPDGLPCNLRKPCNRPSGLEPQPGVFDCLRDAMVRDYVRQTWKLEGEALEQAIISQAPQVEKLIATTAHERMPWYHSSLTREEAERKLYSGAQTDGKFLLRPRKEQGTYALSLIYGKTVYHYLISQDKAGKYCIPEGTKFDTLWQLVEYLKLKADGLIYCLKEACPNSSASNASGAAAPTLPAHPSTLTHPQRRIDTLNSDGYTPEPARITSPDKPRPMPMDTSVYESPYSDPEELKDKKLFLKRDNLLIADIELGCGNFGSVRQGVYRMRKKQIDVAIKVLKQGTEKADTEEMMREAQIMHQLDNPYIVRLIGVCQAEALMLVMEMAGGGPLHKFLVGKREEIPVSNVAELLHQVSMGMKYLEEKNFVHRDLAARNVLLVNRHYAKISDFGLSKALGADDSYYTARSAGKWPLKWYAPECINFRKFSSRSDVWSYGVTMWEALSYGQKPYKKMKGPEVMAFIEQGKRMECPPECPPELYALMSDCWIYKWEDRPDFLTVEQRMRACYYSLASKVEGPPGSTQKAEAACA

Cc1cccc(-c2nc(Nc3ccncc3)c3ccccc3n2)n1 [NK215]
KINOMEscan EPHB6 [1]: 0 | KINOMEscan JAK3(JH1domain-catalytic) [2]: 0 | KINOMEscan EGFR [3]: 6 | KINOMEscan ZAP70 [4]: 0
